Data on 27 molecules can be found in ChEMBL document CHEMBL1143456, “Identification of a potent and selective 5-HT1B receptor antagonist” (Bioorg Med Chem Lett, 2005).

For data set [1], the target named is T1, 5-hydroxytryptamine receptor 1B (Homo sapiens, UniProt P28222). In words: Intrinsic activity for human 5-hydroxytryptamine 1B receptor.
The target in data set [2] is T1, 5-hydroxytryptamine receptor 1B. The data set can be described thus: Binding affinity against cloned human 5-hydroxytryptamine 1B receptor.
Data set [3] has as its target T2, 5-hydroxytryptamine receptor 1D (Homo sapiens, UniProt P28221). The data set can be described thus: Binding affinity against cloned human 5-hydroxytryptamine 1D receptor.
Data set [4] addresses T3, 5-hydroxytryptamine receptor 1A (Homo sapiens, UniProt P08908).
T3 sequence (P08908 whole entry): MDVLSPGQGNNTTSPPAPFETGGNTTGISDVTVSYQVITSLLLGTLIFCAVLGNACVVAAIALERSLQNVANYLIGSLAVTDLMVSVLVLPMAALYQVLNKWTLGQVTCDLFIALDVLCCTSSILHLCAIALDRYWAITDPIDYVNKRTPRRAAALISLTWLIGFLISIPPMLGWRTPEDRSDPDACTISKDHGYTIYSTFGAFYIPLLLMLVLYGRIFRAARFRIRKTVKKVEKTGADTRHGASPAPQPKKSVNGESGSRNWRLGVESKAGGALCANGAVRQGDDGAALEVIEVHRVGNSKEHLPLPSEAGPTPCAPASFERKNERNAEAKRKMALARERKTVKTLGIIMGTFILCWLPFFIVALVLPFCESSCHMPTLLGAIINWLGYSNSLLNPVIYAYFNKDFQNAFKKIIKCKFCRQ
The data set can be described thus: Binding affinity against cloned human 5-hydroxytryptamine 1A receptor.

Data set [5] addresses Serotonin 1 receptors; 5-HT1B & 5-HT1D (Homo sapiens) (UniProt P28222+P28221). In words: Selectivity towards human 5-hydroxytryptamine 1B receptor to that of 5-hydroxytryptamine 1D receptor. Type of data set: protein assay.
Data set [6] has as its target T2, 5-hydroxytryptamine receptor 1D. The data set can be described thus: Intrinsic activity for human 5-hydroxytryptamine 1D receptor.
Data set [7] is filed under the species Homo sapiens. In words: Selectivity towards human 5-hydroxytryptamine 1B receptor to that of 5-hydroxytryptamine 1A receptor.
A short description of data set [8]: Intrinsic clearance from human liver microsomes. The class given is ADME, Microsome. For orientation: Liver microsomes are a subcellular fraction often used to study metabolism.
The species named for data set [9] is Rattus norvegicus. In words: Intrinsic clearance from rat liver microsomes. Type of data set: ADME, Microsome.

Each structure is given as a SMILES string.

T2 sequence (P28221 whole entry): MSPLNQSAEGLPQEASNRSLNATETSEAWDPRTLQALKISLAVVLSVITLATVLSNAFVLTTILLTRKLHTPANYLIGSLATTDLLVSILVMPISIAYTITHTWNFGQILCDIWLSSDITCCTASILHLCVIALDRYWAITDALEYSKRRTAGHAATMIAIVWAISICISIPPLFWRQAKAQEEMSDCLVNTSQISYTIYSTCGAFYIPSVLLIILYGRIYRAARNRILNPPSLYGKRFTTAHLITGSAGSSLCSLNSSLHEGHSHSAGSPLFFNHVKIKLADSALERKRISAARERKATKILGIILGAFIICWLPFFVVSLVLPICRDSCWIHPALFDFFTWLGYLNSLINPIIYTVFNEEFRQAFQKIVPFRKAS
T1 sequence (P28222 whole entry): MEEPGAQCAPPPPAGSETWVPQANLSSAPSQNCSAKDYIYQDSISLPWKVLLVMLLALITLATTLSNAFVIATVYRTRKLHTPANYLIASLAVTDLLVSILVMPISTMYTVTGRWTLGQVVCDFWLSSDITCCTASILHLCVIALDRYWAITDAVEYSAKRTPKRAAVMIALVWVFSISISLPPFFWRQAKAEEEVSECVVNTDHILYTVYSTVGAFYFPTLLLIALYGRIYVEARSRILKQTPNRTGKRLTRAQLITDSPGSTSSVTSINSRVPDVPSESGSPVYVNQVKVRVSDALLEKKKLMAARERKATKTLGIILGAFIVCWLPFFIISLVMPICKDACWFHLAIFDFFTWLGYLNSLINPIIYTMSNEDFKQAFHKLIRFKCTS

A word on the Ki: it is a measure of affinity in units of concentration, obtained from inhibition or displacement. Read a low Ki as a stronger hold on the target. `COc1cc2c(cc1N1C[C@@H](C)N[C@@H](C)C1)N(C(=O)c1ccc(-c3cc(C)ncc3C)cc1)CC2` had an Intrinsic activity in data set [1] of 0. In addition, the Ki in data set [2] is 7.94 nM; in data set [3], 501 nM.

`COc1cc2c(cc1N1C[C@@H](C)N(C)[C@@H](C)C1)N(C(=O)c1cccc(Cl)c1Cl)CC2`: the Ki in data set [2] is 12.6 nM; in data set [3] it was 251 nM.

In turn, `COc1cc2c(cc1N1C[C@@H](C)N(C)[C@@H](C)C1)N(C(=O)c1ccc(-c3ccccc3C)cc1)CC2` yielded an Intrinsic activity in data set [1] of 0. In addition, the Ki in [2] was 0.631 nM; in data set [3] it was 15.8 nM.

As for `COc1cc2c(cc1N1C[C@@H](C)N[C@@H](C)C1)N(C(=O)c1ccc(-c3ccc(-c4ncccn4)cc3C)cc1)CC2`, the Ki in data set [2] was 5.01 nM; in data set [3], 251 nM.

As for `COc1cc2c(cc1N1C[C@@H](C)N(C)[C@@H](C)C1)N(C(=O)Cc1cccc(C(F)(F)F)c1F)CC2`, in data set [1], the Intrinsic activity turned out to be 0.1. The Ki in data set [2] is 1.58 nM; in data set [3], 126 nM.

As for `COc1cc2c(cc1N1CCN(C)CC1)N(C(=O)Nc1cccc(Cl)c1Cl)CC2`, the Ki is 50.1 nM in data set [4], 3.98 nM in data set [2] and 12.6 nM in data set [3]. In addition, the Selectivity in [5] worked out at 3; in [7] it was 13. Also, the figures for the Intrinsic activity in data set [6] and in [1] were 0.7 and 0.6, respectively.

`COc1cc2c(cc1N1C[C@@H](C)N(C)[C@@H](C)C1)N(C(=O)Nc1cccc(C(F)(F)F)c1Cl)CC2` had an Intrinsic activity in data set [1] of 0. The Ki in data set [2] was 2.51 nM; in data set [3], 50.1 nM.

Take `COc1cc2c(cc1N1C[C@@H](C)N[C@@H](C)C1)N(C(=O)c1ccc(-c3ccc(C(C)=O)cc3C)cc1)CC2`: the Ki in data set [2] is 3.16 nM; in data set [3], 398 nM.

As to `COc1cc2c(cc1N1CCN(C)CC1)N(C(=O)c1ccc(-c3cccc(C)n3)c3ccccc13)CC2`, the results for the Ki in data set [4], in data set [2] and in data set [3] were 12.6 nM, 2 nM and 25.1 nM, respectively. In addition, the Selectivity in [5] was determined as 12; in data set [7] it was 6. The Intrinsic activity in [6] and in data set [1] was 0.9 each time.

For `COc1cc2c(cc1N1C[C@@H](C)N(C)[C@@H](C)C1)N(C(=O)Oc1cccc(C(F)(F)F)c1Cl)CC2`, the Intrinsic activity in [1] was 0.15. Further, the figures for the Ki in data set [2] and in [3] were 2.51 nM and 25.1 nM, respectively.

Turning to `COc1cc2c(cc1N1C[C@@H](C)N(C)[C@@H](C)C1)N(C(=O)Cc1cccc([N+](=O)[O-])c1)CC2`, the Ki was 2000 nM in data set [4], 15.8 nM in data set [2] and 251 nM in data set [3]. For the same molecule, the Selectivity is 15 in data set [5] and 125 in [7]. In addition, the figures for the Intrinsic activity in [6] and in [1] were 0.2 and 0.1, respectively.

For `COc1cc2c(cc1N1C[C@@H](C)N[C@@H](C)C1)N(C(=O)c1ccc(-c3ccc(-c4noc(C)n4)cc3C)cc1)CC2`, in data set [1], the Intrinsic activity is 0. The Ki in [2] was 3.16 nM; in [3], 251 nM.

Regarding `COc1cc2c(cc1N1C[C@@H](C)N[C@@H](C)C1)N(C(=O)c1ccc(-c3cccc(C)n3)c3ccccc13)CC2`, the figures for the Ki in [4], in data set [2] and in [3] were 1000 nM, 50.1 nM and 126 nM, respectively. Further, the Intrinsic clearance is 14 mL/min/g in data set [8] and 12 mL/min/g in data set [9]. Besides, the results for the Selectivity in data set [5] and in data set [7] were 2.8 and 21, respectively.

Molecule `COc1cc2c(cc1N1C[C@@H](C)N(C)[C@@H](C)C1)N(C(=O)Oc1cccc(C(F)(F)F)c1F)CC2` gave an Intrinsic activity in data set [1] of 0.1. For the same molecule, the Ki in data set [2] is 2.51 nM; in data set [3], 31.6 nM.

For the molecule `CCN1[C@H](C)CN(c2cc3c(cc2OC)CCN3C(=O)c2ccc(-c3cccc(C)n3)c3ccccc23)C[C@@H]1C`, the Ki in data set [4] was 501 nM; in data set [2] it was 3.98 nM; in data set [3] it was 126 nM. Moreover, the Intrinsic clearance in [8] amounted to 47 mL/min/g; in data set [9], 45 mL/min/g. Moreover, the results for the Selectivity in data set [5] and in data set [7] were 28 and 110, respectively.

With `COc1cc2c(cc1N1CCN(C)CC1)N(C(=O)Cc1cccc([N+](=O)[O-])c1)CC2`, the Ki in data set [4] is 158 nM; in [2], 7.94 nM; in data set [3] it was 31.6 nM. Besides, the results for the Selectivity in data set [5] and in [7] were 4 and 20, respectively.

Turning to `COc1cc2c(cc1N1C[C@@H](C)N(C)[C@@H](C)C1)N(C(=O)c1cccc(Cl)c1)CC2`, the figures for the Ki in [2] and in [3] were 20 nM and 251 nM, respectively.

In the case of `COc1cc2c(cc1N1C[C@@H](C)N(C)[C@@H](C)C1)N(C(=O)Cc1cccc(Cl)c1F)CC2`, the Intrinsic activity in [1] came to 0.1. Moreover, the Ki was 2 nM in data set [2] and 100 nM in data set [3].

Molecule `COc1cc2c(cc1N1C[C@@H](C)N(C)[C@@H](C)C1)N(C(=O)Cc1cccc(F)c1C(F)(F)F)CC2` came in with an Intrinsic activity in [1] of 0.1. The Ki in data set [2] was 3.16 nM; in [3], 200 nM.

As to `CN1CCN(c2cc3c(cc2Cl)CCN3C(=O)Nc2ccc(-c3ccncc3)c3ccccc23)CC1`, the figures for the inhibitory constant (Ki) in data set [4], in data set [2] and in [3] were 3.98 nM, 3.98 nM and 1 nM, respectively. Besides, the Selectivity came to 0.25 in data set [5] and 1 in data set [7].

`COc1cc2c(cc1N1C[C@@H](C)N(C)[C@@H](C)C1)N(C(=O)Nc1cccc(Cl)c1F)CC2` yielded an Intrinsic activity in data set [1] of 0.1. In addition, the Ki in [2] is 7.94 nM; in data set [3], 200 nM.

As to `COc1cc2c(cc1N1C[C@@H](C)N[C@@H](C)C1)N(C(=O)c1ccc(-c3ccc(N4CCCC4=O)nc3C)cc1)CC2`, the Intrinsic activity in data set [1] worked out at 0. In addition, the Ki in data set [2] is 5.01 nM; in data set [3] it was 398 nM.

For the molecule `CCCN1[C@H](C)CN(c2cc3c(cc2OC)CCN3C(=O)c2ccc(-c3cccc(C)n3)c3ccccc23)C[C@@H]1C`, the Ki is 79.4 nM in [4], 31.6 nM in [2] and 158 nM in [3]. For the same molecule, the Selectivity was found to be 4.7 in [5] and 2 in [7].

As to `COc1cc2c(cc1N1C[C@@H](C)N(C)[C@@H](C)C1)N(C(=O)c1ccc(-c3ccc(-c4noc(C)n4)cc3C)cc1)CC2`, the Ki was 5.01 nM in [2] and 15.8 nM in [3].

As for `COc1cc2c(cc1N1C[C@@H](C)N(C)[C@@H](C)C1)N(C(=O)Nc1cccc(C(F)(F)F)c1F)CC2`, in [1], the Intrinsic activity is 0. The Ki in [2] is 3.98 nM; in data set [3], 158 nM.

Turning to `COc1cc2c(cc1N1C[C@@H](C)N(C)[C@@H](C)C1)N(C(=O)Nc1cccc(Cl)c1Cl)CC2`, the Intrinsic clearance in data set [8] and in data set [9] was 3 mL/min/g throughout. In addition, the values for the Selectivity in [5] and in data set [7] were 10 and 200, respectively. Also, the Intrinsic activity in data set [6] and in [1] was 0.1 in each case. Further, the Ki in data set [2] was 7.94 nM; in data set [3] it was 79.4 nM.

For `COc1cc2c(cc1N1C[C@@H](C)N(C)[C@@H](C)C1)N(C(=O)c1ccc(-c3cccc(C)n3)c3ccccc13)CC2`, the results for the Ki in [4], in [2] and in data set [3] were 501 nM, 3.16 nM and 100 nM, respectively. Moreover, the Intrinsic clearance was 34 mL/min/g in data set [8] and 46 mL/min/g in [9]. Further, the Selectivity in [5] turned out to be 30; in data set [7] it was 160. The same molecule had an Intrinsic activity in [1] of 0.3.
